In patent publication US10100022B2, “Sphingosine kinase inhibitors” (University of Virginia Patent Foundation, priority 2014, dated 2018):
Where a name gives a salt, the structure may show the parent alone.

Legend:
[1] = patients, 1-yr trial; cited from earlier work
[2] = molecular target: T1, human sphingosine kinase type 1 (hSPHK1) (Homo sapiens, UniProt Q9NYA1); test: Sphingosine kinase assay, recombinant human SPHK1 ([32P]S1P product, scintillation counting); type: biochemical; conditions: read-out: activity hSPHK1 (range estimate of KI)
T1 construct: made in house; host or cells: Sf9 insect cells (baculovirus)
Summary of the method: (§1)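 SPHK1 from cleared lysates of baculovirus-infected Sf9 cells, unpurified; SPHK2 partially purified from Sf9 lysates. Standard sphingosine kinase protocol; [32P]S1P product captured on cation exchange paper and counted by scintillation.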

[3] = molecular target: T2, human sphingosine kinase type 2 (hSPHK2) (Homo sapiens, UniProt Q9NRA0); test: Sphingosine kinase assay, recombinant human SPHK2 ([32P]S1P product, scintillation counting); type: biochemical; conditions: read-out: activity hSPHK2 (range estimate of KI)
T2 construct: purchased; host or cells: Sf9 insect cells (baculovirus)
T2 sequence (Q9NRA0 1-654): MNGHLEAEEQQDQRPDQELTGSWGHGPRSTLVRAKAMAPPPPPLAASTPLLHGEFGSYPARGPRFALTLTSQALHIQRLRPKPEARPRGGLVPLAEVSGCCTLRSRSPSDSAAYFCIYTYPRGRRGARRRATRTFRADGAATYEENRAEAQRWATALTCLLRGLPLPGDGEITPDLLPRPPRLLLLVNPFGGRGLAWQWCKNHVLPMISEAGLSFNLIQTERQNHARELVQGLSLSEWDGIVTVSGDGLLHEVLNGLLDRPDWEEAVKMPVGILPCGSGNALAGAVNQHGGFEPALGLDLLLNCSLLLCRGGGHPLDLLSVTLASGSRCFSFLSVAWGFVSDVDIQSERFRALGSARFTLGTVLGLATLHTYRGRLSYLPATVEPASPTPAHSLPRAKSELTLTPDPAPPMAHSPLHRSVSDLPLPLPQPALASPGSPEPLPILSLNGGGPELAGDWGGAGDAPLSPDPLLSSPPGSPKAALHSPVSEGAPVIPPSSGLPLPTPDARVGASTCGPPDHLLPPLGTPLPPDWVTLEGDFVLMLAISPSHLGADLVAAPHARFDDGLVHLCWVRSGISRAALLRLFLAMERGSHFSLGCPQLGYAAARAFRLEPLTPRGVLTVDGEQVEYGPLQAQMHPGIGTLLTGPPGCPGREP
Summary of the method: as §1

T1 sequence (Q9NYA1 whole entry): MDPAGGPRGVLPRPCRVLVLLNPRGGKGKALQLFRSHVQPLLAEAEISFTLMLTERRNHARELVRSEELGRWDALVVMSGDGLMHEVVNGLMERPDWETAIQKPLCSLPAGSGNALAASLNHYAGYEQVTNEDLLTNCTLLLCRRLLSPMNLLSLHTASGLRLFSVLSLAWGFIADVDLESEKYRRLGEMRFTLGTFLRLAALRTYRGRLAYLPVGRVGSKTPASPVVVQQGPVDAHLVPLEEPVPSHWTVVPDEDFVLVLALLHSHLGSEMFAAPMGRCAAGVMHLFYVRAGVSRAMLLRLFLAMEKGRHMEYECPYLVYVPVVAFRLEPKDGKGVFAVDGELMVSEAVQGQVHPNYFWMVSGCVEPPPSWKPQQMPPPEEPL

SMILES | modest hypertension [1] | Ki [2] [µM] | Ki [3] [µM]
CCCCCCCCc1ccc(CCC(N)(CO)CO)cc1 [fingolimod, 2-amino-2-[2-(4-octylphenyl)ethyl] propane 1,3-diol] | 2-3 mmHg | – | –
CCCCCCCCOc1ccc(-c2noc([C@@H]3CCCN3C(=N)N)n2)cc1F [Compound 11A, (S)-Amino(2-(3-(3-fluoro-4-(octyloxy)phenyl)-1,2,4-oxadiazol-5-yl)pyrrolidin-1-yl)methaniminium chloride] | – | > 10 | > 10
N=C(N)N1CCC[C@H]1c1nc(-c2ccc3cc(OCc4cccc(Cl)c4)ccc3c2)no1 [Compound 68A, (S)-amino(2-(3-(6-((3-chlorobenzyl)oxy)naphthalen-2-yl)-1,2,4-oxadiazol-5-yl)pyrrolidin-1-yl)methaniminium chloride] | – | > 10 | > 10
CCCCCCCCOc1ccc(-c2noc([C@@H]3CC(F)(F)CN3C(=N)N)n2)cc1C(F)(F)F [Compound 19A, (S)-amino(4,4-difluoro-2-(3-(4-(octyloxy)-3-(trifluoromethyl)phenyl)-1,2,4-oxadiazol-5-yl)pyrrolidin-1-yl)methaniminium chloride] | – | > 10 | > 10
CCCC/C=C\CCOc1ccc(-c2noc([C@@H]3CCCN3C(=N)N)n2)cc1C(F)(F)F [Compound 85A, (S,Z)-amino(2-(3-(4-(oct-3-en-1-yloxy)-3-(trifluoromethyl)phenyl)-1,2,4-oxadiazol-5-yl)pyrrolidin-1-yl)methaniminium 2,2,2-trifluoroacetate] | – | > 10 | < 1
CCCOc1ccc(CCc2ccc(-c3noc([C@@H]4CCCN4C(=N)N)n3)cc2C(F)(F)F)cc1 [Compound 94A, (S)-2-(3-(4-(4-propoxyphenethyl)-3-(trifluoromethyl)phenyl)-1,2,4-oxadiazol-5-yl)pyrrolidine-1-carboximidamide hydrochloride] | – | > 10 | < 1
N=C(N)N1CC[C@H](O)[C@H]1c1nc(-c2ccc(OCCCc3ccc4c(c3)OCCO4)c(C(F)(F)F)c2)no1 [Compound 27A] | – | > 10 | 1 to 10
C=CCOc1ccc(-c2noc([C@@H]3CCCN3C(=N)N)n2)cc1C(F)(F)F [Compound 77A, (S)-2-(3-(4-(allyloxy)-3-(trifluoromethyl)phenyl)-1,2,4-oxadiazol-5-yl)pyrrolidine-1-carboximidamide hydrochloride] | – | > 10 | > 10
N=C(N)N1CCC[C@H]1c1nc(-c2ccc3cc(OCCc4cccc(C(F)(F)F)c4)ccc3c2)no1 [Compound 60A, (S)-amino(2-(3-(6-(3-(trifluoromethyl)phenethoxy)naphthalen-2-yl)-1,2,4-oxadiazol-5-yl)pyrrolidin-1-yl)methaniminium chloride] | – | > 10 | > 10
C=CCn1c(CCCOc2ccc(-c3noc([C@@H]4[C@@H](O)CCN4C(=N)N)n3)cc2C(F)(F)F)nc2ccccc21 [Compound 47A, ((2S,3S)-2-(3-(4-(3-(1-allyl-1H-benzo[d]imidazol-2-yl)propoxy)-3-(trifluoromethyl)phenyl)-1,2,4-oxadiazol-5-yl)-3-hydroxypyrrolidin-1-yl)(amino)methaniminium chloride] | – | > 10 | 1 to 10
CCCCCCCCOc1ccc(-c2noc([C@@H]3[C@H](O)CCN3C(=N)N)n2)cc1C(F)(F)F [Compound 10A, amino((2S,3R)-3-hydroxy-2-(3-(4-(octyloxy)-3-(trifluoromethyl)phenyl)-1,2,4-oxadiazol-5-yl)pyrrolidin-1-yl)methaniminium chloride] | – | > 10 | > 10
N=C(N)N1CC[C@H](O)[C@H]1c1nc(-c2ccc(CCC3CCCC3)c(C(F)(F)F)c2)no1 [Compound 43A, (2S,3S)-2-(3-(4-(2-cyclopentylethyl)-3-(trifluoromethyl)phenyl)-1,2,4-oxadiazol-5-yl)-3-hydroxypyrrolidine-1-carboximidamide hydrochloride] | – | 1 to 10 | < 1
CCCCCCCCCc1ccc(-c2noc([C@@H]3CCCN3C(=N)N)n2)cc1C(F)(F)F [Compound 3B] | – | > 10 | < 1
